Experimental data reported in patent US8927761B2, “Form of hexyl-5-aminolevulinate hydrochloride and methods of using the same” (Photocure ASA, priority 2012, dated 2015).

Experiment: Hot stage microscopy: conversion between solid forms on heating
Format: physicochemical
Conditions: solid state; conversion to the new Form shown by observed change in crystal morphology
Protocol: Hot stage microscopy was performed using a Linkam hot stage (model FTIR 600) mounted on a Leica DM LP microscope. Sample was observed using a 20× objective. Sample was placed on a coverslip, and a second coverslip was then placed over the sample. Each sample was visually observed as the stage was heated. The hot stage was calibrated using USP melting point standards.
Characteristic data for new Form C was obtained with X-ray powder diffraction (XRPD), differential scanning calorimetry (DSC), hot stage microscopy, infrared spectroscopy (IR), Raman spectroscopy, and solid state ^13C cross polarization magic angle spinning nuclear magnetic resonance spectroscopy. The new Form is a crystalline material that melts near 99° C. […] The particle morphology is observed as rays, lathe, and/or blades. The new Form is the thermodynamically stable form above 65° C.

In the case of `CCCCCCOC(=O)CCC(=O)CN.Cl` [Form C, hexyl 5-aminolevulinate hydrochloride], the “temperature range in which the new Form is the thermodynamically stable form” value is reported as “above 65 °C”.
